Assay results taken from ChEMBL document CHEMBL4354844, “Discovery of Balovaptan, a Vasopressin 1a Receptor Antagonist for the Treatment of Autism Spectrum Disorder” (J Med Chem, 2020).
Calls of active or inactive are those of the source. The rule behind the calls is not given here.

Tests used:
[1] = target: Vasopressin V1a receptor (Homo sapiens) (UniProt P37288); assay: Antagonist activity at human Gq5s-coupled V1a receptor expressed in CHO cells assessed as inhibition of vasopressin-induced calcium flux preincubated for 20 mins followed by vasopressin addition and measured for 5 mins by fluo-4-AM dye based FLIPR assay; assay type: functional, cell-based
[2] = Selectivity ratio of Kb for antagonist activity at human […] receptor to Kb for antagonist activity at human Gq5s-coupled V1a receptor expressed in CHO cells
[3] = Water/octanol distribution coefficient, log D of the compound at pH 7.4 measured after 18 hrs by LC-MS analysis; assay type: physicochemical
[4] = Selectivity ratio of Kb for antagonist activity at human V2 receptor to Kb for antagonist activity at human Gq5s-coupled V1a receptor expressed in CHO cells
[5] = Intrinsic clearance in human liver microsomes assessed per mg protein; assay type: ADME, Microsome; conditions: read-out: CLH
[6] = Intrinsic clearance in rat liver microsomes assessed per mg protein; assay type: ADME, Microsome; conditions: read-out: CLH
[7] = target: MDR1 (ABCB1, P-glycoprotein) (Homo sapiens, UniProt P08183); assay: Substrate activity at human MDR1 expressed in LLC-PK1 cells assessed as efflux ratio of permeability at 1 uM measured after 3.5 hrs by lucifer yellow based scintillation counting or HPLC method; assay type: ADME, cell-based
Rattus norvegicus [8] = assay: In vivo receptor occupancy at V1a receptor in stress hyperresponsive Fischer F344 rat at 30 mg/kg, iv administered as bolus dose via catheter; assay type: functional
Rattus norvegicus [9] = assay: Neuroprotective activity in stress hyperresponsive Fischer F344 rat assessed as increase in perfusion in ventral tegmental area at 30 mg/kg, iv administered as bolus dose via catheter by ASL-based MRI analysis; assay type: functional, organism-based
Rattus norvegicus [10] = assay: Neuroprotective activity in stress hyperresponsive Fischer F344 rat assessed as increase in perfusion in substantia nigra at 30 mg/kg, iv administered as bolus dose via catheter by ASL-based MRI analysis; assay type: functional, organism-based
Rattus norvegicus [11] = assay: Neuroprotective activity in stress hyperresponsive Fischer F344 rat assessed as increase in perfusion in raphe nuclei at 30 mg/kg, iv administered as bolus dose via catheter by ASL-based MRI analysis; assay type: functional, organism-based
[12] = Volume of distribution at steady state in iv dosed rat; assay type: ADME, organism-based; conditions: in vivo, read-out: Vdss
Rattus norvegicus [13] = assay: Neuroprotective activity in iv dosed stress hyperresponsive Fischer F344 rat assessed as improvement in neural activity pattern administered as bolus dose via catheter by ASL-based MRI analysis; assay type: functional, organism-based
[14] = Half life in iv dosed rat; assay type: ADME, organism-based; conditions: in vivo
[15] = Clearance in iv dosed rat relative to hepatic blood flow; assay type: ADME, organism-based; conditions: in vivo
Rattus norvegicus [16] = assay: Neuroprotective activity in stress hyperresponsive Fischer F344 rat assessed as increase in perfusion in hypothalamus at 30 mg/kg, iv administered as bolus dose via catheter by ASL-based MRI analysis; assay type: functional, organism-based
[17] = Half life in iv dosed human; assay type: ADME, organism-based; conditions: in vivo

Sequence of MDR1 (ABCB1, P-glycoprotein) (P08183 whole entry): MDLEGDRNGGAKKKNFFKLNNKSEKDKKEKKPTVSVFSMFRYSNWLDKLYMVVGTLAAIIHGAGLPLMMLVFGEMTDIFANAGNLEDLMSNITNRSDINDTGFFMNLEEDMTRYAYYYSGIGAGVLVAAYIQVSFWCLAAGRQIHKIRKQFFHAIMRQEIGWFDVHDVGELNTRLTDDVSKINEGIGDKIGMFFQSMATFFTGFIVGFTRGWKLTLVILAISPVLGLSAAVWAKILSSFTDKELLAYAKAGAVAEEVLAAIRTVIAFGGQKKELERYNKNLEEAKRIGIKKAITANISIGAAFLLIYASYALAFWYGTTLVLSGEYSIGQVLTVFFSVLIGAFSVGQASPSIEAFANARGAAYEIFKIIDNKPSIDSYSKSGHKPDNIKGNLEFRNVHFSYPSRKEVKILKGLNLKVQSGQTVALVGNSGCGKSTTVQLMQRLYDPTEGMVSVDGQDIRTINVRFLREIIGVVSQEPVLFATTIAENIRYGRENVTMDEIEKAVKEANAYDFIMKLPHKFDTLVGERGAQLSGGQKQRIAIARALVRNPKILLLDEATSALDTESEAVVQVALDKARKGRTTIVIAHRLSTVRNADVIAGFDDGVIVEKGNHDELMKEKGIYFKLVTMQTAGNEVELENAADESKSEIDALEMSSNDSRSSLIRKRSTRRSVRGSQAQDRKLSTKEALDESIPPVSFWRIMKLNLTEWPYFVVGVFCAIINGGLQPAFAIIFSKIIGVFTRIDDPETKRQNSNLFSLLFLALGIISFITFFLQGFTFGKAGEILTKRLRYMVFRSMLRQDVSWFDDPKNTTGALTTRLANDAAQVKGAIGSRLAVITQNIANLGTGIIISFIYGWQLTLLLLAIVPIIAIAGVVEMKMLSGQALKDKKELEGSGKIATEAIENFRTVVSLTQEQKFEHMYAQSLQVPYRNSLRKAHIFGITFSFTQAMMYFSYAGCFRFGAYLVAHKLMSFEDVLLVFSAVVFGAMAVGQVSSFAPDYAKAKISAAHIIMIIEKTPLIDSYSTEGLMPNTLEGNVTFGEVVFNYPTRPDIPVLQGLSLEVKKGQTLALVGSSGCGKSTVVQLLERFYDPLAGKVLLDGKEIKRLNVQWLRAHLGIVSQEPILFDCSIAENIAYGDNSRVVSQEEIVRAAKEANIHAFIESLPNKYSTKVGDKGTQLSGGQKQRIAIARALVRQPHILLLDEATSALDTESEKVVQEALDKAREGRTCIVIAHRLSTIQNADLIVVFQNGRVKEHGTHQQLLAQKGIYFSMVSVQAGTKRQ
Sequence of Vasopressin V1a receptor (Homo sapiens) (P37288 whole entry, looked up): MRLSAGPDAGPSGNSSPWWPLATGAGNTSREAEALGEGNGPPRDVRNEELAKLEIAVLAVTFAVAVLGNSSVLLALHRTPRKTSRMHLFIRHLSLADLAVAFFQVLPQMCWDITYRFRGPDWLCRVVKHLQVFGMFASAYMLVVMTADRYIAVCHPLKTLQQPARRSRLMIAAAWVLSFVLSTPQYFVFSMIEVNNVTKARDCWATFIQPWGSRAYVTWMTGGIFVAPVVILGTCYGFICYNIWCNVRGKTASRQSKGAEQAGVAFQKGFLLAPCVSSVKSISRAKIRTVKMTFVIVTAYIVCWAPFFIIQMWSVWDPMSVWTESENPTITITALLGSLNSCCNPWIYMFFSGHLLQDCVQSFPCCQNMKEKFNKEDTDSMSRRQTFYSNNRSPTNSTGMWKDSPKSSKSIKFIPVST

`Clc1ccc2c(c1)CN(C1CCC1)Cc1nnc([C@H]3CC[C@H](Oc4ccccc4)CC3)n1-2` gave a pKb [1] of 9.3, a Selectivity ratio [2] of 113 and a logD at 18 h [3] greater than 3. The Selectivity ratio [4] was 179.

In the case of `CN1Cc2cc(Cl)ccc2-n2c(nnc2[C@H]2CC[C@H](c3cccc(Cl)n3)CC2)C1`, the logD at 18 h [3] is reported as 2.5 to 3.2.

In the case of `CN1Cc2cc(Cl)ccc2-n2c(nnc2N2CCC3(CC2)OCc2ccccc23)C1`, the pKb [1] is reported as 9.6, the Selectivity ratio [2] is reported as 127 and the microsomal CLint [5] is reported as less than 10 µL/min/mg. For the same molecule, the microsomal CLint [6] was 718 µL/min/mg and the Selectivity ratio [4] was 218.

Work on `Cc1cc(C)nc([C@H]2CC[C@H](c3nnc4n3-c3ccc(Cl)cc3CN(C)C4)CC2)n1` yielded a logD at 18 h [3] of 2.

Work on `CN1Cc2cc(Cl)ccc2-n2c(nnc2N2CCC(O)(c3ccccc3)CC2)C1` yielded a pKb [1] of 8.6, a Selectivity ratio [2] of 35 and a microsomal CLint [5] of less than 10 µL/min/mg. The microsomal CLint [6] was 435 µL/min/mg and the Selectivity ratio [4] was 38.

In the case of `CC(C)(C)OC(=O)N1Cc2cc(Cl)ccc2-n2c(nnc2[C@H]2CC[C@H](Oc3ccccc3)CC2)C1`, the pKb [1] is reported as 8.5, the Selectivity ratio [2] is reported as 17 and the Selectivity ratio [4] is reported as 19.

`CN1Cc2cc(Cl)ccc2-n2c(nnc2C2CC=C(c3ccccc3)CC2)C1` (racemic) showed a pKb [1] of 9.3, a Selectivity ratio [2] of 22 and a Selectivity ratio [4] of 90.

For `CN1Cc2cc(Cl)ccc2-n2c(nnc2[C@H]2CC[C@H](Nc3ccccn3)CC2)C1`, the efflux ratio at 3.5 h, 1 µM [7] was 14.

Work on `CN1Cc2cc(Cl)ccc2-n2c(nnc2[C@H]2CC[C@H](Oc3ccccc3)CC2)C1` yielded a pKb [1] of 9.5, a Selectivity ratio [2] of 289 and a logD at 18 h [3] of 3.2. For the same molecule, the Selectivity ratio [4] was 629.

Work on `CN(C)CC(=O)N1Cc2cc(Cl)ccc2-n2c(nnc2[C@H]2CC[C@H](Oc3ccccc3)CC2)C1` yielded a pKb [1] of 9.2, a Selectivity ratio [2] of 1025 and a logD at 18 h [3] of 2.5. The Selectivity ratio [4] was 963.

For `CN1Cc2cc(Cl)ccc2-n2c(nnc2-c2ccc(-c3ccccc3)cc2)C1`, the Occ (Rattus norvegicus [8]) was greater than 90%, the Activity (Rattus norvegicus [9]) was “Active” and the Kb [1] was 12 nM. For the same molecule, the pKb [1] was 8.6, the Activity (Rattus norvegicus [10]) was “Active” and the Selectivity ratio [2] was 13. For the same molecule, the Activity (Rattus norvegicus [11]) was “Active”, the Vd [12] was 4 to 6 L/kg and the Activity (Rattus norvegicus [13]) was “Dose-dependent effect”. For the same molecule, the half-life [14] was 1.5 h, the clearance [15] was 50 to 60% and the Selectivity ratio [4] was 30. The Activity (Rattus norvegicus [16]) was “Active”.

Molecule `CN1Cc2cc(Cl)ccc2-n2c(nnc2[C@H]2CC[C@H](c3ccc(F)cn3)CC2)C1` has a logD at 18 h [3] of 2.5 to 3.2.

With `CN1Cc2cc(Cl)ccc2-n2c(nnc2[C@H]2CC[C@H](c3ccccn3)CC2)C1` the pKb [1] was 9.6, the Selectivity ratio [2] was 863 and the efflux ratio at 3.5 h, 1 µM [7] was 4.4. The Selectivity ratio [4] was 1081.

In the case of `CN(C)S(=O)(=O)N1Cc2cc(Cl)ccc2-n2c(nnc2[C@H]2CC[C@H](Oc3ccccc3)CC2)C1`, the pKb [1] is reported as 9.5, the Selectivity ratio [2] is reported as 190 and the logD at 18 h [3] is reported as 4.1. It also gave a Selectivity ratio [4] of 445.

`CC(=O)N1Cc2cc(Cl)ccc2-n2c(nnc2[C@H]2CC[C@H](Oc3ccccc3)CC2)C1` gave a pKb [1] of 9.5, a Selectivity ratio [2] of 538 and a logD at 18 h [3] of 2.9. It also gave a Selectivity ratio [4] of 1055.

Work on `OCCN1Cc2cc(Cl)ccc2-n2c(nnc2[C@H]2CC[C@H](Oc3ccccc3)CC2)C1` yielded a pKb [1] of 9.6, a Selectivity ratio [2] of 677 and a logD at 18 h [3] of 2.7. The Selectivity ratio [4] was 1091.

Work on `Cc1cccc([C@H]2CC[C@H](c3nnc4n3-c3ccc(Cl)cc3CN(C)C4)CC2)n1` yielded a logD at 18 h [3] of 2.5 to 3.2.

Work on `CN1Cc2cc(Cl)ccc2-n2c(nnc2[C@H]2CC[C@@]3(CC2)OCc2ccccc23)C1` yielded a pKb [1] of 9.2, a Selectivity ratio [2] of 236 and a microsomal CLint [5] of 72 µL/min/mg. It also gave a microsomal CLint [6] of 1000 µL/min/mg and a Selectivity ratio [4] of 669.

Molecule `CN1Cc2cc(Cl)ccc2-n2c(nnc2[C@H]2CC[C@H](c3ncccc3Cl)CC2)C1` has a logD at 18 h [3] of 2.5 to 3.2.

Work on `CN1Cc2cc(Cl)ccc2-n2c(nnc2N2CCC3(CC2)COCc2ccccc23)C1` yielded a pKb [1] of 9.3, a Selectivity ratio [2] of 14 and a microsomal CLint [5] of 22 µL/min/mg. It also gave a microsomal CLint [6] of 949 µL/min/mg and a Selectivity ratio [4] of 167.

`Cc1onc([C@H]2CC[C@H](c3nnc4n3-c3ccc(Cl)cc3CN(C)C4)CC2)c1C` showed an efflux ratio at 3.5 h, 1 µM [7] of 3.8.

`CN1Cc2cc(Cl)ccc2-n2c(nnc2[C@H]2CC[C@]3(CC2)OCc2ccccc23)C1` showed a pKb [1] of 9.1, a Selectivity ratio [2] of 5 and a microsomal CLint [5] of 10 µL/min/mg. The microsomal CLint [6] was 206 µL/min/mg and the Selectivity ratio [4] was 19.

In the case of `Clc1ccc2c(c1)CNCc1nnc([C@H]3CC[C@H](Oc4ccccc4)CC3)n1-2`, the pKb [1] is reported as 8.7, the Selectivity ratio [2] is reported as 430 and the logD at 18 h [3] is reported as 2.7. For the same molecule, the efflux ratio at 3.5 h, 1 µM [7] was 4.3 and the Selectivity ratio [4] was 523.

For `CN1Cc2cc(Cl)ccc2-n2c(nnc2[C@H]2CC[C@H](c3noc4ccccc43)CC2)C1`, the logD at 18 h [3] was greater than 3 and the efflux ratio at 3.5 h, 1 µM [7] was 1.4.

Molecule `CN(C)CCn1cc(C(=O)N2CCC3(CC2)OCc2ccccc23)c2ccc(Cl)cc21` [RO-5028442] has a half-life [17] of 8 h.

For `CN1Cc2cc(Cl)ccc2-n2c(nnc2[C@H]2CC[C@H](c3ccccc3)CC2)C1`, the pKb [1] was 9.5, the Selectivity ratio [2] was 4 and the Selectivity ratio [4] was 17.

`CN1Cc2cc(Cl)ccc2-n2c(nnc2[C@H]2CC[C@H](C3=NOCC3)CC2)C1` showed a logD at 18 h [3] of 1 and an efflux ratio at 3.5 h, 1 µM [7] of 6.1.

For `CC(C)N1Cc2cc(Cl)ccc2-n2c(nnc2[C@H]2CC[C@H](Oc3ccccc3)CC2)C1`, the pKb [1] was 9.4, the Selectivity ratio [2] was 224 and the Selectivity ratio [4] was 535.

`CN1Cc2cc(Cl)ccc2-n2c(nnc2[C@H]2CC[C@H](c3ncc(F)cc3F)CC2)C1` gave a logD at 18 h [3] of 2.5 to 3.2.

`CN1Cc2cc(Cl)ccc2-n2c(nnc2N2CCC3(CC2)SCc2ccccc23)C1` gave a pKb [1] of 9, a Selectivity ratio [2] of 9 and a microsomal CLint [5] of 24 µL/min/mg. The microsomal CLint [6] was 493 µL/min/mg and the Selectivity ratio [4] was 65.

For `CN1Cc2cc(Cl)ccc2-n2c(nnc2C2CCN(c3ccccn3)CC2)C1`, the pKb [1] was 8.9, the Selectivity ratio [2] was 2415 and the microsomal CLint [5] was less than 10 µL/min/mg. For the same molecule, the microsomal CLint [6] was 72 µL/min/mg and the Selectivity ratio [4] was 2478.

In the case of `Cc1nnc(-c2ccc(-c3ccccc3)cc2)n1-c1ccccc1OCCCCCCN1CCN(C)CC1`, the pKb [1] is reported as 8.7, the Selectivity ratio [2] is reported as 34 and the Selectivity ratio [4] is reported as 67.

In the case of `CS(=O)(=O)N1Cc2cc(Cl)ccc2-n2c(nnc2[C@H]2CC[C@H](Oc3ccccc3)CC2)C1`, the pKb [1] is reported as 9.5, the Selectivity ratio [2] is reported as 191 and the logD at 18 h [3] is reported as 3.1. For the same molecule, the Selectivity ratio [4] was 573.

In the case of `CN1Cc2cc(Cl)ccc2-n2c(nnc2[C@H]2CC[C@H](c3ncccc3F)CC2)C1`, the logD at 18 h [3] is reported as 2.5 to 3.2.

With `CN1Cc2cc(Cl)ccc2-n2c(nnc2N2CCC3(CC2)OCCc2ccccc23)C1` the pKb [1] was 8.8, the Selectivity ratio [2] was 10 and the microsomal CLint [5] was less than 10 µL/min/mg. The microsomal CLint [6] was 550 µL/min/mg and the Selectivity ratio [4] was 44.

`CN1Cc2cc(Cl)ccc2-n2c(nnc2[C@H]2CC[C@H](n3nnc4ccccc43)CC2)C1` showed a logD at 18 h [3] of 2.4 and an efflux ratio at 3.5 h, 1 µM [7] of 10.9.
